Laboratory results as given in PubChem BioAssay (NCI).
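A five-concentration, 48-hour dose response in 96-well plates underlies each endpoint, interpolated linearly between surrounding concentrations. TGI denotes the concentration required for complete inhibition of growth.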

How the values were obtained:
Test in all cases: inhibition of tumour cell growth, NCI panel, 48 h
A549 NSCLC = test system: A549 NSCLC
HOP-92 NSCLC = test system: HOP-92 NSCLC
SF-295 CNS = test system: SF-295 CNS
UACC-62 melanoma = test system: UACC-62 melanoma
UO-31 renal = test system: UO-31 renal
MDA-MB-435 = test system: MDA-MB-435
SK-OV-3 ovarian = test system: SK-OV-3 ovarian
COLO 205 colon = test system: COLO 205 colon
NCI/ADR-RES ovarian = test system: NCI/ADR-RES ovarian
786-0 renal = test system: 786-0 renal
CAKI-1 renal = test system: CAKI-1 renal
SN12C renal = test system: SN12C renal
NCI-H460 lung = test system: NCI-H460 lung
NCI-H23 lung = test system: NCI-H23 lung
HCC-2998 colon = test system: HCC-2998 colon
SR leukemia = test system: SR leukemia
MDA-MB-231 breast = test system: MDA-MB-231 breast
T-47D breast = test system: T-47D breast
IGROV1 ovarian = test system: IGROV1 ovarian
MOLT-4 leukemia = test system: MOLT-4 leukemia
SK-MEL-5 melanoma = test system: SK-MEL-5 melanoma
OVCAR-4 ovarian = test system: OVCAR-4 ovarian
OVCAR-8 ovarian = test system: OVCAR-8 ovarian
HOP-62 NSCLC = test system: HOP-62 NSCLC
SW-620 colon = test system: SW-620 colon
RPMI-8226 leukemia = test system: RPMI-8226 leukemia
MDA-N = test system: MDA-N
CCRF-CEM leukemia = test system: CCRF-CEM leukemia
U251 CNS = test system: U251 CNS
ACHN renal = test system: ACHN renal
SF-539 CNS = test system: SF-539 CNS
M14 melanoma = test system: M14 melanoma
TK-10 renal = test system: TK-10 renal
MALME-3M melanoma = test system: MALME-3M melanoma
MCF7 breast = test system: MCF7 breast
EKVX NSCLC = test system: EKVX NSCLC
SNB-19 CNS = test system: SNB-19 CNS
K-562 leukemia = test system: K-562 leukemia
SF-268 CNS = test system: SF-268 CNS
HL-60(TB) leukemia = test system: HL-60(TB) leukemia
SK-MEL-28 melanoma = test system: SK-MEL-28 melanoma
HT29 colon = test system: HT29 colon
NCI-H522 lung = test system: NCI-H522 lung
OVCAR-3 ovarian = test system: OVCAR-3 ovarian
SK-MEL-2 melanoma = test system: SK-MEL-2 melanoma
OVCAR-5 ovarian = test system: OVCAR-5 ovarian
UACC-257 melanoma = test system: UACC-257 melanoma
RXF 393 renal = test system: RXF 393 renal
LOX IMVI melanoma = test system: LOX IMVI melanoma
KM12 colon = test system: KM12 colon
HCT-15 colon = test system: HCT-15 colon
HCT-116 colon = test system: HCT-116 colon
NCI-H226 lung = test system: NCI-H226 lung
A498 renal = test system: A498 renal
HS 578T breast = test system: HS 578T breast
SNB-75 CNS = test system: SNB-75 CNS
DU-145 prostate = test system: DU-145 prostate
PC-3 prostate = test system: PC-3 prostate
BT-549 breast = test system: BT-549 breast

Measured: TGI

CC(=O)c1ccc(NC(=O)CSc2nc(C)nc3c2sc(=S)n3-c2ccccc2)cc1
> 10 µM: UO-31 renal | OVCAR-8 ovarian | MCF7 breast | K-562 leukemia
not listed: PC-3 prostate | BT-549 breast
> 3.16 µM: all other assays above

O=C1CSc2nnc(CCCCCCCCc3nnc4n3NC(=O)CS4)n2N1
51.1 µM: CCRF-CEM leukemia
75.2 µM: NCI-H522 lung
not listed: SK-MEL-5 melanoma | TK-10 renal | RXF 393 renal | LOX IMVI melanoma | HS 578T breast
> 100 µM: all other assays above
